In PMC5029806, “Streptococcus pneumoniae TIGR4 Flavodoxin: Structural and Biophysical Characterization of a Novel Drug Target” (PLoS ONE, 2016):

Target: T1, Streptococcus pneumoniae TIGR4 flavodoxin (SpFld) (Streptococcus pneumoniae, UniProt A0A0H2UQC6)
T1 construct: gene fld; apo form for ITC, SeMet holo form for the crystal structure
Assay: ITC at […]°C ([…] NaCl, […] MES, pH […]); crystal structure of the FMN complex; thermal stabilization by CD, fluorescence and DSC
Type: binding

T1 sequence (A0A0H2UQC6 entry or part of it): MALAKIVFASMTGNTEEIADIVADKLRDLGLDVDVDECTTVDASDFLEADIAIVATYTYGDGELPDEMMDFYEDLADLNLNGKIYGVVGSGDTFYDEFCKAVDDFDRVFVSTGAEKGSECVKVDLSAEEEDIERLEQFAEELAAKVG

**Q.** For Cc1cc2nc3c(=O)[nH]c(=O)nc-3n(C[C@H](O)[C@H](O)[C@H](O)COP(=O)(O)O)c2cc1C [FMN], which Kd is on record?
**A.** 83 ± 9 nM
